Measured values taken from patent US8889878B2, “Haloalky-substituted amides as insecticides and acaricides” (Bayer CropScience AG, priority 2009, dated 2014).

Legend:
[1] = logP by HPLC on reverse-phase column (EEC Directive 79/831 Annex V.A8); type: physicochemical
Method: The logP values reported in the above Tables and Preparation Examples were determined according to EEC Directive 79/831 Annex V.A8 by HPLC (High Performance Liquid Chromatography) on a reverse-phase column (C18). Temperature 43° C.

Boophilus microplus = Boophilus microplus test (BOOPMI injection), Example 11; type: in vivo; conditions: application rate 20 μg/animal, injected into abdomen, after 7 days
Method: Boophilus microplus Test (BOOPMI Injection) • Solvent: dimethyl sulphoxide To prepare an appropriate active ingredient formulation, 10 mg of active ingredient are mixed with 0.5 ml of solvent and the concentrate is diluted with solvent to the desired concentration. The active ingredient solution is injected into the abdomen (Boophilus microplus), and the animals are transferred to dishes and stored in a climate-controlled room. The efficacy was assessed by the number of fertile eggs laid. After 7 days, the efficacy in % is determined. 100% means that none of the ticks has laid any fertile eggs.

[2] = test system: armyworm (Spodoptera frugiperda); assay: Spodoptera frugiperda test (SPODFR spray treatment), Example 15; type: in vivo; conditions: maize leaf discs sprayed, after 7 days
Method: Spodoptera frugiperda Test (SPODFR Spray Treatment)
• Solvent: 78.0 parts by weight of acetone • 1.5 parts by weight of dimethylformamide • Emulsifier: 0.5 part by weight of alkylaryl polyglycol ether
To prepare an appropriate active ingredient formulation, 1 part by weight of active ingredient is mixed with the stated amounts of solvent and emulsifier, and the concentrate is diluted with emulsifier-containing water to the desired concentration. Leaf discs from maize (Zea mays) are sprayed with an active ingredient formulation of the desired concentration and, after drying, populated with caterpillars of the armyworm (Spodoptera frugiperda).
After 7 days, the efficacy in % is determined. 100% means that all caterpillars were killed; 0% means that no caterpillars were killed.

[3] = HPLC-MS, HPLC on reverse-phase column
[4] = HPLC, C18 reverse phase, 43° C., acidic range pH 2.7, calibration with alkan-2-ones

| Structure (SMILES) | logP ([1]; HPLC-MS) | efficacy in % ([2]; application rate 100 g/ha) [%] | further results |
| --- | --- | --- | --- |
| CCC(C)NC(=O)c1ccc(/C=C/C(=O)NC(c2cccc(C(F)(F)F)c2)C(F)(F)F)cc1C(F)(F)F (centres unmarked) [Ia-144] | HPLC-MS: logP = 3.84; mass |  | efficacy in % (fertile eggs laid) (Boophilus microplus): 100% |
| N#CCNC(=O)c1ccc(/C=C/C(=O)NC(c2cccc(C(F)(F)F)c2)C(F)(F)F)cc1C(F)(F)F (centres unmarked) [Ia-129] | HPLC-MS: logP = 3.19; mass | 100 | efficacy in % (fertile eggs laid) (Boophilus microplus): 100% |
| O=C(/C=C/c1ccc(C(=O)NCC=CCl)c(C(F)(F)F)c1)NC(c1cccc(C(F)(F)F)c1)C(F)(F)F (centres unmarked) [Ia-145] | HPLC-MS: logP = 3.69; mass |  | efficacy in % (fertile eggs laid) (Boophilus microplus): 100% |
| O=C(/C=C/c1ccc(C(=O)Nc2ccc([N+](=O)[O-])cn2)c(Cl)c1)NC(c1cccc(C(F)(F)F)c1)C(F)(F)F (racemic) [Ia-204] | HPLC-MS: logP = 3.95; mass | 100 |  |
| CCOC1(NC(=O)c2ccc(/C=C/C(=O)NC(c3cccc(C(F)(F)F)c3)C(F)(F)F)cc2Br)CC1 (centres unmarked) [Ia-237] | HPLC-MS: logP = 3.42; mass |  | efficacy in % (fertile eggs laid) (Boophilus microplus): 100% |
| O=C(/C=C/c1ccc(CNC(=O)C2CCC2)c(C(F)(F)F)c1)NC(c1cccc(C(F)(F)F)c1)C(F)(F)F (centres unmarked) [Ia-267] |  | 100 | logP [1, 3]: HPLC-MS: logP = 3.9; mass |
| O=C(/C=C/c1ccc(C(=O)N(Cc2cccnc2)C2CC2)c(C(F)(F)F)c1)NC(c1cccc(C(F)(F)F)c1)C(F)(F)F (centres unmarked) [Ia-258] | HPLC-MS: logP = 2.8; mass | 100 |  |
| N#Cc1cc(/C=C/C(=O)NC(c2cc(Cl)ccc2Cl)C(F)(F)F)ccc1-n1cncn1 (centres unmarked) [Ia-15] | HPLC-MS: logP = 3.19; mass |  | efficacy in % ([2]; application rate 500 g/ha): 83% |
| CC(NC(=O)c1ccc(/C=C/C(=O)NC(c2cccc([N+](=O)[O-])c2)C(F)(F)F)cc1C(F)(F)F)C(F)(F)F (centres unmarked) [Ia-28] | HPLC-MS: logP = 3.83; mass |  | efficacy in % ([2]; application rate 500 g/ha): 83% |
| O=C(/C=C/c1ccc(C(=O)Nc2cc(Cl)ccn2)c(C(F)(F)F)c1)NC(c1cccc(C(F)(F)F)c1)C(F)(F)F (centres unmarked) [Ia-121] | HPLC-MS: logP = 4.3; mass |  | efficacy in % (fertile eggs laid) (Boophilus microplus): 100% |
| O=C(/C=C/c1ccc(C(=O)Nc2ccncn2)c(C(F)(F)F)c1)NC(c1cccc(C(F)(F)F)c1)C(F)(F)F (centres unmarked) [Ia-125] | HPLC-MS: logP = 3.35; mass | 100 | efficacy in % (fertile eggs laid) (Boophilus microplus): 100% |
| O=C(/C=C/c1ccc(CNS(=O)(=O)C2CC2)c(C(F)(F)F)c1)NC(c1cccc(C(F)(F)F)c1)C(F)(F)F (centres unmarked) [Ia-271] |  | 100 | logP [1, 3]: HPLC-MS: logP = 3.74; mass |
| C#CC(C)NC(=O)c1ccc(/C=C/C(=O)NC(c2cccc(C(F)(F)F)c2)C(F)(F)F)cc1Br (centres unmarked) [Ia-178] | HPLC-MS: logP = 3.44; mass | 100 |  |
| O=C(/C=C/c1ccc(C(=O)Nc2cccnn2)c(C(F)(F)F)c1)NC(c1cccc(C(F)(F)F)c1)C(F)(F)F (centres unmarked) [Ia-225] | HPLC-MS: logP = 3.27; mass | 100 |  |
| CC(=O)NCc1ccc(/C=C/C(=O)NC(c2cccc(C(F)(F)F)c2)C(F)(F)F)cc1C(F)(F)F (centres unmarked) [Ia-247] | HPLC-MS: logP = 3.24; mass | 100 |  |
| CCC(=O)NC(C)c1ccc(/C=C/C(=O)NC(c2cccc(C(F)(F)F)c2)C(F)(F)F)cc1F (centres unmarked) [Ia-273] |  | 100 | logP [1, 3]: HPLC-MS: logP = 3.3; mass |
| O=C(/C=C/c1ccc(C(=O)NC2CC2)c(C(F)(F)F)c1)NC(c1cccc(Br)c1)C(F)(F)F (centres unmarked) [Ia-284] |  | 100 | logP [1, 3]: HPLC-MS: logP = 3.35; mass |
| O=C(/C=C/c1ccc(C(=O)Nc2ccccn2)c(C(F)(F)F)c1)NC(c1cncc(C(F)(F)F)c1)C(F)(F)F (centres unmarked) [Ib-2] |  |  | logP [1, 4]: HPLC-MS: logP = 3.02 mass (m/z):; efficacy in % ([2]; application rate 500 g/ha): 83% |
| O=C(/C=C/c1ccc(-n2cnc(Cl)n2)c(C(F)(F)F)c1)NC(c1cccc(C(F)(F)F)c1)C(F)(F)F (racemic) [Ia-208] | HPLC-MS: logP = 4.02; mass | 100 |  |

| Structure (SMILES) | logP ([1]; HPLC-MS) | efficacy in % ([2]; application rate 100 g/ha) [%] | further results |
| --- | --- | --- | --- |
| O=C(/C=C/c1ccc(C(=O)Nc2ccc(F)cn2)c(Cl)c1)NC(c1cccc(C(F)(F)F)c1)C(F)(F)F (racemic) [Ia-203] | HPLC-MS: logP = 3.84; mass | 100 |  |
| CCOCn1c(C(=O)NC(c2cccc(C(F)(F)F)c2)C(F)(F)F)cc2cc(C(=O)NC3CC3)c(Cl)cc21 (racemic) [Ic-27] |  | 100 | logP [1, 4]: HPLC-MS: logP = 3.81; mass |
| O=C(/C=C/c1ccc(C(=O)Nc2ncccn2)c(C(F)(F)F)c1)NC(c1cccc(C(F)(F)F)c1)C(F)(F)F (centres unmarked) [Ia-119] | HPLC-MS: logP = 3.11; mass | 100 |  |
| O=C(/C=C/c1ccc(-n2cccn2)c(C(F)(F)F)c1)NC(c1cccc(C(F)(F)F)c1)C(F)(F)F (centres unmarked) [Ia-135] | HPLC-MS: logP = 3.95; mass |  | efficacy in % (fertile eggs laid) (Boophilus microplus): 100% |
| CCC(=O)NC(C)c1ccc(/C=C/C(=O)NC(c2ccc(F)c(C(F)(F)F)c2)C(F)(F)F)cc1F (centres unmarked) [Ia-275] |  | 100 | logP [1, 3]: HPLC-MS: logP = 3.38; mass |
| O=C(/C=C/c1ccc(C(=O)NC2CC2)c(Cl)c1)NC(c1cccc(Cl)c1)C(F)(F)F (centres unmarked) [Ia-235] | HPLC-MS: logP = 3.03; mass |  | efficacy in % ([2]; application rate 500 g/ha): 83% |
| O=C(/C=C/c1ccc(C(=O)NCc2nccs2)c(Cl)c1)NC(c1cccc(C(F)(F)F)c1)C(F)(F)F (centres unmarked) [Ia-159] | HPLC-MS: logP = 3.13; mass |  | efficacy in % (fertile eggs laid) (Boophilus microplus): 100% |
| CN(C(=O)c1ccc(/C=C/C(=O)NC(c2ccc(F)c(C(F)(F)F)c2)C(F)(F)F)cc1C(F)(F)F)c1ccccn1 (centres unmarked) [Ia-281] |  | 100 | logP [1, 3]: HPLC-MS: logP = 3.63; mass |
| Cn1ccc(NC(=O)c2ccc(/C=C/C(=O)NC(c3cccc(C(F)(F)F)c3)C(F)(F)F)cc2C(F)(F)F)n1 (centres unmarked) [Ia-124] | HPLC-MS: logP = 3.28; mass | 100 | efficacy in % (fertile eggs laid) (Boophilus microplus): 100% |
| CCN(C(=O)c1ccc(/C=C/C(=O)NC(c2cccc(C(F)(F)F)c2)C(F)(F)F)cc1C(F)(F)F)C1CC1 (centres unmarked) [Ia-257] | HPLC-MS: logP = 3.89; mass | 100 |  |
| O=C(/C=C/c1ccc(C(=O)NCc2cc(Cl)ccn2)c(C(F)(F)F)c1)NC(c1cccc(C(F)(F)F)c1)C(F)(F)F (centres unmarked) [Ia-126] | HPLC-MS: logP = 3.68; mass |  | efficacy in % (fertile eggs laid) (Boophilus microplus): 100% |
| NC(=O)c1ccc(/C=C/C(=O)NC(c2cccc(C(F)(F)F)c2)C(F)(F)F)cc1Cl (centres unmarked) [Ia-157] | HPLC-MS: logP = 2.75; mass |  | efficacy in % (fertile eggs laid) (Boophilus microplus): 100% |
| Cc1ccnc(NC(=O)c2ccc(/C=C/C(=O)NC(c3cccc(C(F)(F)F)c3)C(F)(F)F)cc2C(F)(F)F)c1 (centres unmarked) [Ia-259] | HPLC-MS: logP = 3.61; mass | 100 |  |
| O=C(/C=C/c1ccc(C(=O)Nc2ncccc2Cl)c(Cl)c1)NC(c1cccc(C(F)(F)F)c1)C(F)(F)F (centres unmarked) [Ia-183] | HPLC-MS: logP = 3.44; mass | 83 |  |
| O=C(/C=C/c1ccc(C(=O)Nc2ncc(Cl)cn2)c(C(F)(F)F)c1)NC(c1cccc(C(F)(F)F)c1)C(F)(F)F (centres unmarked) [Ia-137] | HPLC-MS: logP = 3.62; mass | 100 |  |
| N#Cc1ccc(NC(=O)c2ccc(/C=C/C(=O)NC(c3cccc(C(F)(F)F)c3)C(F)(F)F)cc2Br)nc1 (racemic) [Ia-214] | HPLC-MS: logP = 3.75; mass | 100 |  |
| CC(C#N)(NC(=O)c1ccc(/C=C/C(=O)NC(c2cccc(C(F)(F)F)c2)C(F)(F)F)cc1C(F)(F)F)C1CC1 (centres unmarked) [Ia-172] | HPLC-MS: logP = 3.74; mass | 100 |  |
| CC(NC(=O)c1ccc(/C=C/C(=O)NC(c2cccc(C(F)(F)F)c2)C(F)(F)F)cc1Br)C(F)(F)F (centres unmarked) [Ia-176] | HPLC-MS: logP = 3.78; mass | 100 |  |
